Results reported in ChEMBL document CHEMBL5728313, “Methods for inhibiting fascin” (2021).

Test: High Throughput Inhibition Assay: A high throughput assay was developed to screen for fascin specific inhibitors. Purified polymerized F-actin with or without fascin were mixed and incubated to allow actin bundle formation. F-actin polymers were then bound to the poly-D-lysine coated plates. After extensive washes, F-actin polymers were visualized by labeling them with Alexa Fluor 488 phalloidin. Four images were taken from each well and the average fiber length was analyzed for each tested compound.

O=C(Cn1cnc2c(cnn2C2CCS(=O)(O)(O)C2)c1=O)Nc1ccc(Cl)cc1 (stereo unspecified) gave an IC50 of 4.3 µM.
